We go through 18 molecules from PubChem BioAssay (NCI).

Some test systems named below: NCI-H23 lung; NCI-H226 lung; IGROV1 ovarian; HOP-92 NSCLC; OVCAR-4 ovarian; HL-60(TB) leukemia; OVCAR-8 ovarian; CAKI-1 renal.
What all share (test): growth of human tumour cells (NCI), 48 h

The structures appear in SMILES notation.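 Briefly, cells in 96-well plates were exposed to five compound concentrations for 48 h, and endpoints were estimated by linear interpolation. The concentration for 50% growth inhibition is given as GI50. At the TGI there is no net growth.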

Regarding `O=C1N(c2ccc(Cl)cc2)C(=O)C2(SC=NN2Cc2ccccc2)N1c1ccc(Cl)cc1` (configuration not stated), the TGI in the assay with NCI-H23 lung, with NCI-H226 lung, in the assay on IGROV1 ovarian, in the assay on HOP-92 NSCLC, with OVCAR-4 ovarian and in the assay with HL-60(TB) leukemia was > 100 µM throughout. Moreover, the TGI with OVCAR-8 ovarian was > 100 µM.
Take `CCOC(=O)C(Oc1ccc(OC)c2c1C(=O)CCC2)c1ccccc1` (configuration not stated): the TGI in the assay with NCI-H23 lung, in the assay with IGROV1 ovarian, in the assay with CAKI-1 renal, in the assay with OVCAR-4 ovarian, with HL-60(TB) leukemia and in the assay with OVCAR-8 ovarian was > 100 µM throughout.
Consider `Cc1ccccc1NC(=O)C(=O)C(C(=O)c1ccccc1F)C1OC(=O)c2ccccc21` (configuration not stated), for which the TGI was 28.2 µM in the assay on NCI-H23 lung; 14.3 µM with NCI-H226 lung; 50 µM in the assay with CAKI-1 renal; 65.8 µM in the assay with HOP-92 NSCLC; 60.9 µM in the assay with OVCAR-4 ovarian; 56.5 µM in the assay with HL-60(TB) leukemia.
In the case of `COc1cc(O)c(C(=O)C2Cc3ccccc32)c(OC)c1` (configuration not stated), the TGI was 86 µM in the assay on NCI-H226 lung; > 100 µM in the assay with IGROV1 ovarian; 72.4 µM in the assay on CAKI-1 renal; > 100 µM with HOP-92 NSCLC; > 100 µM with OVCAR-4 ovarian; 39.7 µM in the assay with HL-60(TB) leukemia. Moreover, in the assay on OVCAR-8 ovarian, the TGI was > 100 µM.
Regarding `CC(C)(c1ccc(C=O)o1)c1ccc(C(C)(C)c2ccc(C=O)o2)o1`, the TGI in the assay on NCI-H23 lung, with NCI-H226 lung, with IGROV1 ovarian, in the assay with CAKI-1 renal, in the assay on HOP-92 NSCLC and in the assay on OVCAR-4 ovarian was > 100 µM throughout. Moreover, the TGI in the assay on HL-60(TB) leukemia and in the assay with OVCAR-8 ovarian was > 100 µM in each case.
Regarding `C=C(C)[C@@H]1CC[C@]2(C(=O)O)CC[C@]3(C)[C@H](CC[C@@H]4[C@@]5(C)CCC(N)C(C)(C)[C@@H]5CC[C@]43C)[C@@H]12` (some centres not stated), the GI50 in the assay on IGROV1 ovarian is 2.41 µM; in the assay with OVCAR-4 ovarian it was 2.79 µM. For the same molecule, the TGI is 6.22 µM in the assay with IGROV1 ovarian and > 100 µM with OVCAR-4 ovarian.
As for `CC(=O)OC1(C(C)=O)CC2(c3ccccc3)OC1(c1ccccc1)c1ccccc12` (configuration not stated), the TGI is > 100 µM in the assay on NCI-H23 lung; 43.2 µM with NCI-H226 lung; 56.7 µM with IGROV1 ovarian; > 100 µM in the assay on HOP-92 NSCLC; > 100 µM in the assay with OVCAR-8 ovarian.
Take `N#C/C(=C/c1ccc([N+](=O)[O-])o1)c1ccccc1`: the TGI with NCI-H23 lung, with NCI-H226 lung, with CAKI-1 renal, with HOP-92 NSCLC, in the assay on OVCAR-4 ovarian and in the assay on HL-60(TB) leukemia was > 100 µM throughout. Further, in the assay on OVCAR-8 ovarian, the TGI is > 100 µM.
`O=C1c2c(c3c4ccccc4n(CC4CO4)c3c3[nH]c4ccccc4c23)C(=O)N1Cc1ccccc1` (configuration not stated): the TGI with NCI-H23 lung, in the assay with NCI-H226 lung, with IGROV1 ovarian, in the assay with CAKI-1 renal, with HOP-92 NSCLC and with OVCAR-4 ovarian was > 100 µM in each case. Also, the TGI in the assay on HL-60(TB) leukemia and with OVCAR-8 ovarian was > 100 µM in each case.
For `N#Cc1sc2nc3c(c(-c4ccccc4)c2c1N)CCCC3`, the TGI in the assay with NCI-H23 lung, in the assay on NCI-H226 lung, with CAKI-1 renal, in the assay on HOP-92 NSCLC, in the assay on OVCAR-4 ovarian and in the assay on HL-60(TB) leukemia was > 100 µM in each case. The TGI with OVCAR-8 ovarian was > 100 µM.
As to `CCNC(=O)O/N=C1\CCC2[C@@H]3CC=C4C[C@@H](OC(=O)NCC)CC[C@]4(C)C3CC[C@]12C` (some centres not stated), the TGI in the assay with NCI-H23 lung was 11.7 µM; in the assay with IGROV1 ovarian, > 100 µM; with HOP-92 NSCLC it was 13.3 µM; with OVCAR-4 ovarian, 5.19 µM; in the assay on OVCAR-8 ovarian, 18.2 µM.
Take `COC(=O)CC(=O)OC1C[C@@H]2CCC3C(C)(C)CCC[C@]3(C)C23CC[C@@]1(C)C3` (some centres not stated): the TGI in the assay on NCI-H23 lung was found to be 33.5 µM; in the assay on NCI-H226 lung, 46.7 µM; with IGROV1 ovarian, 31.8 µM; with CAKI-1 renal, 30.5 µM; in the assay on HOP-92 NSCLC, 31.9 µM; in the assay on OVCAR-4 ovarian, 32.5 µM. For the same molecule, the TGI in the assay on HL-60(TB) leukemia was > 100 µM; in the assay on OVCAR-8 ovarian it was 36.8 µM.
As for `NC1(C(=O)O)CCC(C(=O)O)CC1` (configuration not stated), the TGI in the assay on NCI-H23 lung, in the assay with NCI-H226 lung, with IGROV1 ovarian, in the assay with CAKI-1 renal, with HOP-92 NSCLC and in the assay with OVCAR-4 ovarian was > 100 µM throughout. Further, the TGI in the assay with HL-60(TB) leukemia and with OVCAR-8 ovarian was > 100 µM in each case.
On to `N/N=C1/C(=O)N(c2ccc(Cl)cc2)C(=O)C(=O)C1c1nc2ccccc2s1` (configuration not stated), for which the TGI in the assay on NCI-H23 lung, in the assay on IGROV1 ovarian, with CAKI-1 renal, in the assay with HOP-92 NSCLC, in the assay on OVCAR-4 ovarian and with HL-60(TB) leukemia was > 100 µM in each case. Also, the TGI in the assay with OVCAR-8 ovarian was > 100 µM.
`NN=C1/C(=C\c2ccccc2)CCC/C1=C/c1ccccc1`: the TGI with NCI-H23 lung was > 100 µM; with IGROV1 ovarian, > 100 µM; with HOP-92 NSCLC, 76.7 µM; in the assay on OVCAR-4 ovarian, > 100 µM; in the assay with HL-60(TB) leukemia, 45.1 µM; with OVCAR-8 ovarian, > 100 µM.
On to `Nc1ncc(CN2CCCC2)c(-c2ccccc2O)n1`, for which the TGI in the assay on NCI-H23 lung, in the assay with NCI-H226 lung, with IGROV1 ovarian, in the assay with CAKI-1 renal, in the assay with HOP-92 NSCLC and in the assay with OVCAR-4 ovarian was > 750 µM each time. The TGI in the assay on OVCAR-8 ovarian was > 750 µM. In addition, in the assay with HL-60(TB) leukemia, the GI50 is > 750 µM.
For the molecule `CSCSCC(CO)NC(=O)/C=C/c1c(C)[nH]c(=O)[nH]c1=O` (configuration not stated), the TGI with NCI-H23 lung, in the assay with NCI-H226 lung, in the assay on CAKI-1 renal, with HOP-92 NSCLC, in the assay on OVCAR-4 ovarian and with HL-60(TB) leukemia was > 100 µM throughout. Besides, the TGI in the assay on OVCAR-8 ovarian was > 100 µM.
Take `CCN(CC)c1ccc(N=Nc2ccc(-c3nc4cccnc4s3)cc2)cc1`: the TGI in the assay with NCI-H23 lung, in the assay with NCI-H226 lung, with IGROV1 ovarian, in the assay on CAKI-1 renal, in the assay with HOP-92 NSCLC and in the assay with OVCAR-4 ovarian was > 100 µM throughout. For the same molecule, the TGI with HL-60(TB) leukemia and in the assay with OVCAR-8 ovarian was > 100 µM in each case.
